The values that follow come from US11185812B2, “Regenerative recovery of sulfur dioxide from effluent gases” (MECS, INC., priority 2010, dated 2021).

Like-named read-outs stand apart in the source and are kept apart here.

The nature of data set [1]: Equilibrium loading data for metal salts, batch absorber experiments. Format: physicochemical. The settings on record: atmospheric pressure; for SO2, ppm: equilibrium SO2 concentration; for Loading Capacity (fraction): equilibrium, aqueous absorption solution. As to the method:
The following experiments were conducted in a batch absorber wherein a sulfur dioxide-containing gas was fed via a sparger below the liquid level in a vessel containing an aqueous absorption solution comprising various polyprotic carboxylic acid salts and the composition of the exhaust gas was monitored.
The sulfur dioxide-containing inlet gas 101 to be treated comprised nitrogen saturated with water vapor and a controlled concentration of sulfur dioxide. Temperatures (T) and pressure (P) were monitored during the experiment and gas samples (S) were taken at different times during the experiment. T1 and P1 are temperature and pressure sensors of inlet gas 101. S1 is a sampling point for inlet gas 101. T2 is a temperature sensor of the liquid in the vessel. T3 is a temperature sensor of exhaust gas 102.
In these experiments and other experiments reported in the Examples below, the gas concentrations were measured by gas chromatography and liquid concentrations were calculated by material balance.
All experiments were performed at atmospheric pressure. These experiments approach equilibrium concentrations and, in some cases, equilibrium data (denoted Eq. in the legend) are also included in the graphed results. For the equilibrium data, the compositions of the gas and liquid were diluted with excess caustic to maintain the sulfur dioxide in solution.
Total sulfur content was determined using ASTM Standard D1552, “Standard Test Method for Sulfur in Petroleum Products (High-Temperature Method”, DOI: 10.1520/D1552-08, available from ASTM International, West Conshohocken, Pa., www.astm.org.

The conditions of data set [2]: cited from earlier work.

For the molecule `O=C([O-])CC(O)(CC(=O)[O-])C(=O)[O-].[K+].[K+].[K+]` [K Cit, potassium citrate], the “SO2, ppm” value in data set [1] (50 °C) amounted to 105.94 ppm; in data set [1] (100 °C) it was 1162.54 ppm. The “Loading Capacity (fraction)” value is 0.2754 fraction in data set [1] (50 °C) and 0.2668 fraction in data set [1] (100 °C).
Take `O=C(O)CCCC(=O)O` [L-Glutaric Acid]: in data set [2] (25° C.), the pKa1 is listed as 4.31 and the pKa2 is 5.41.
On to `CC(=O)CCC(=O)O` [Levulinic Acid], for which the pKa1 in data set [2] (25° C.) is reported as 4.59.
Take `O=C([O-])CC(O)C(=O)[O-].[Na+].[Na+]` (stereo not shown) [Na Mal, sodium malate]: in data set [1] (50 °C), the “SO2, ppm” value came to 406.6 ppm and the “Loading Capacity (fraction)” value turned out to be 0.1694 fraction. Further, in data set [1] (100 °C), the “SO2, ppm” value amounted to 2169.06 ppm and the “Loading Capacity (fraction)” value was determined as 0.1416 fraction.
For `O=C([O-])c1ccccc1C(=O)[O-].[Na+].[Na+]` [Na Pha, sodium phthalate], in data set [1] (50 °C), the “SO2, ppm” value was determined as 1115.92 ppm and the “Loading Capacity (fraction)” value is listed as 0.6530 fraction. In data set [1] (100 °C), the “SO2, ppm” value was found to be 11303.83 ppm and the “Loading Capacity (fraction)” value turned out to be 0.7250 fraction.
`O=C([O-])CCC(=O)[O-].[Na+].[Na+]` [Na Suc, sodium succinate]: in data set [1] (50 °C), the “SO2, ppm” value is listed as 137.54 ppm and the “Loading Capacity (fraction)” value was determined as 0.1045 fraction. In addition, in data set [1] (100 °C), the “SO2, ppm” value is on record as 1387.3 ppm and the “Loading Capacity (fraction)” value is given as 0.2053 fraction.
Regarding `O=C(O)c1cccnc1` [Nicotinic acid], the pKa1 in data set [2] (temperature not given) is on record as 4.75.
Turning to `O=C(O)c1ccccc1C(=O)O` [o-Phthalic Acid], in data set [2] (25° C.), the pKa1 is reported as 2.89 and the pKa2 was 5.51.
